Test results as given in US12052991B2, “Substituted pyridinyloxybenzenes and salts thereof and use thereof as herbicidal agents” (Bayer Aktiengesellschaft, priority 2018, dated 2024).

Key:
Format in all cases: in vivo
[1] = system: Amaranthus retroflexus (AMARE); experiment: Herbicidal pre-emergence action, test C (Table C6); settings: visual scoring after about 3 weeks, 100% = plants have died, 0% = like control plants
Summary of the method: (§1)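 Greenhouse pre-emergence test: compound formulations (WP or EC) are applied at 1280 or 320 g/ha to the soil surface over sown weed seeds, with 0.5% additive in 600 L/ha water. After about 3 weeks, percent activity is assessed visually, 100% indicating dead plants.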

[2] = system: Alopecurus myosuroides (ALOMY); experiment: Herbicidal post-emergence action (Table B9); settings: rated visually after about 3 weeks, 100% = plants have died, 0% = like control plants
Summary of the method: (§2)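 Post-emergence spray, one-leaf stage (2–3 wk after sowing), sandy loam, greenhouse. WP/EC in water + 0.5% additive, 600 L/ha, 1280 or 320 g/ha. Visual % activity vs untreated after ~3 wk (0% = like control, 100% = plants dead).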

[3] = system: Digitaria sanguinalis (DIGSA); experiment: Herbicidal pre-emergence action, test C (Table C10); settings: visual scoring after about 3 weeks, 100% = plants have died, 0% = like control plants
Summary of the method: as §1

Veronica persica (VERPE) [4] = experiment: Herbicidal post-emergence action (Table B12); settings: visual rating about 3 weeks after treatment, 100% = plants have died, 0% = like control plants
Summary of the method: as §2

Poa annua (POAAN) [5] = experiment: Herbicidal pre-emergence action, test C (Table C3); settings: visual scoring after about 3 weeks, 100% = plants have died, 0% = like control plants
Summary of the method: as §1

Bassia scoparia (KCHSC) = experiment: Herbicidal post-emergence action (Table B11); settings: visual rating about 3 weeks after treatment, 100% = plants have died, 0% = like control plants
Summary of the method: as §2

[6] = system: Matricaria inodora (MATIN); experiment: Herbicidal post-emergence action (Table B7); settings: 1280 g/ha; rated visually after about 3 weeks; 100% = plants have died, 0% = like control plants
Experimental: Seeds of mono- and dicotyledonous weed plants were placed in plastic pots in sandy loam soil (doubly sown with in each case one species of mono- or dicotyledonous weed plants per pot), covered with soil and cultivated in a greenhouse under controlled growth conditions. 2 to 3 weeks after sowing, the test plants were treated at the one-leaf stage. The compounds of the invention, formulated in the form of wettable powders (WP) or as emulsion concentrates (EC), were applied onto the green parts of the plants as aqueous suspension or emulsion with addition of 0.5% additive at a water application rate of 600 liters per hectare (converted). After the test plants had been kept in the greenhouse under optimum growth conditions for about 3 weeks, the activity of the preparations was rated visually in comparison to untreated controls. For example, 100% activity=the plants have died, 0% activity=like control plants. Tables B1 to B12 below show the effects of selected compounds of the general formula (I) according to Table 1 on various harmful plants and an application rate corresponding to 1280 or 320 g/ha, which were obtained by the experimental procedure mentioned above.

Stellaria media (STEME) [7] = experiment: Herbicidal post-emergence action (Table B8); settings: visual rating about 3 weeks after treatment, 100% = plants have died, 0% = like control plants
Summary of the method: as §2

[8] = system: harmful plants ABUTH, AMARE, ECHCG, LOLRI, MATIN, POAAN, SETVI, STEME, ALOMY, DIGSA, KCHSC and VERPE; experiment: Herbicidal post-emergence action, summary of Tables B1-B12; settings: application rate of 1280 or 320 g of active ingredient per hectare; summary in words
Summary of the method: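 Activity scored by eye roughly 3 weeks post-treatment against untreated plants, from 0% (no effect) to 100% (plants dead). Application rates were 1280 or 320 g/ha, as aqueous WP/EC spray plus 0.5% additive at 600 L/ha, onto one-leaf-stage weeds grown 2–3 weeks in sandy loam.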

[9] = system: Digitaria sanguinalis (DIGSA); experiment: Herbicidal post-emergence action (Table B10); settings: visual rating about 3 weeks after treatment, 100% = plants have died, 0% = like control plants
Summary of the method: as §2

[10] = system: Alopecurus myosuroides (ALOMY); experiment: Herbicidal pre-emergence action, test C (Table C9); settings: visual scoring after about 3 weeks, 100% = plants have died, 0% = like control plants
Summary of the method: as §1

[11] = system: Abutilon theophrasti (ABUTH); experiment: Herbicidal pre-emergence action, test C (Table C5); settings: dosage 1280 g/ha; visual scoring after about 3 weeks; 100% = plants have died, 0% = like control plants
Summary of the method: as §1

[12] = system: harmful plants ABUTH, AMARE, ECHCG, LOLRI, MATIN, POAAN, SETVI, STEME, ALOMY, DIGSA, KCHSC and VERPE; experiment: Herbicidal pre-emergence action (test C), summary of Tables C1-C12; settings: application rate of 1280 or 320 g of active ingredient per hectare; summary in words
Summary of the method: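 Visual % damage versus untreated plants (0% = like control, 100% = died) was scored after about 3 weeks in the greenhouse. Before emergence, seeds sown in sandy loam got a soil-surface spray of compound as WP or EC plus 0.5% additive, using 600 L/ha water at rates of 1280 or 320 g/ha.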

[13] = system: Matricaria inodora (MATIN); experiment: Herbicidal pre-emergence action, test C (Table C7); settings: visual scoring after about 3 weeks, 100% = plants have died, 0% = like control plants
Summary of the method: as §1

Veronica persica (VERPE) [14] = experiment: Herbicidal pre-emergence action, test C (Table C12); settings: visual scoring vs untreated controls
Summary of the method: as §1

[15] = system: Abutilon theophrasti (ABUTH); experiment: Herbicidal post-emergence action (Table B5); settings: rated visually after about 3 weeks, 100% = plants have died, 0% = like control plants
Summary of the method: as §2

[16] = system: Amaranthus retroflexus (AMARE); experiment: Herbicidal post-emergence action (Table B6); settings: visual rating about 3 weeks after treatment, 100% = plants have died, 0% = like control plants
Summary of the method: as §2

Poa annua (POAAN) [17] = experiment: Herbicidal post-emergence action (Table B3); settings: rated visually after about 3 weeks, 100% = plants have died, 0% = like control plants
Summary of the method: as §2

Setaria viridis (SETVI) = experiment: Herbicidal pre-emergence action, test C (Table C4); settings: visual scoring after about 3 weeks, 100% = plants have died, 0% = like control plants
Summary of the method: as §1

Stellaria media (STEME) [18] = experiment: Herbicidal pre-emergence action, test C (Table C8); settings: visual scoring after about 3 weeks, 100% = plants have died, 0% = like control plants
Summary of the method: as §1

[19] = system: Echinochloa crus-galli (ECHCG); experiment: Herbicidal pre-emergence action, test C (Table C1); settings: dosage 1280 g/ha; visual scoring after about 3 weeks; 100% = plants have died, 0% = like control plants
Summary of the method: as §1

Lolium rigidum (LOLRI) = experiment: Herbicidal pre-emergence action, test C (Table C2); settings: dosage 1280 g/ha; visual scoring after about 3 weeks; 100% = plants have died, 0% = like control plants
Summary of the method: as §1

Compound	Pre-emergence action against Amaranthus retroflexus (AMARE) ([1]; dosage 320 g/ha)	Pre-emergence action against Amaranthus retroflexus (AMARE) ([1]; dosage 1280 g/ha)	Post-emergence action against Alopecurus myosuroides (ALOMY) ([2]; 1280 g/ha)	Pre-emergence action against Digitaria sanguinalis (DIGSA) ([3]; dosage 1280 g/ha)	Post-emergence action against Veronica persica (VERPE) (Veronica persica (VERPE) [4]; dosage 320 g/ha)	Post-emergence action against Veronica persica (VERPE) (Veronica persica (VERPE) [4]; dosage 1280 g/ha)	Post-emergence action against Bassia scoparia (KCHSC) (Bassia scoparia (KCHSC); dosage 1280 g/ha)	Post-emergence action against Matricaria inodora (MATIN) [6]	Post-emergence action against Stellaria media (STEME) (Stellaria media (STEME) [7]; dosage 320 g/ha)	Post-emergence action against Stellaria media (STEME) (Stellaria media (STEME) [7]; dosage 1280 g/ha)	herbicidal activity against the harmful plants of Tables B1-B12 in post-emergence treatment [8]	Post-emergence action against Digitaria sanguinalis (DIGSA) ([9]; dosage 1280 g/ha)	Pre-emergence action against Alopecurus myosuroides (ALOMY) ([10]; dosage 1280 g/ha)	Pre-emergence action against Abutilon theophrasti (ABUTH) [11]	herbicidal activity against the harmful plants of Tables C1-C12 in pre-emergence treatment [12]	Pre-emergence action against Veronica persica (VERPE) (Veronica persica (VERPE) [14]; dosage 1280 g/ha)	Post-emergence action against Abutilon theophrasti (ABUTH) ([15]; 320 g/ha)	Post-emergence action against Abutilon theophrasti (ABUTH) ([15]; 1280 g/ha)	Post-emergence action against Amaranthus retroflexus (AMARE) ([16]; dosage 320 g/ha)	Post-emergence action against Amaranthus retroflexus (AMARE) ([16]; dosage 1280 g/ha)	further results
Cc1cc(C)c(-c2cc(C(F)F)no2)c(Oc2ncc(Cl)cc2F)c1 [Example 1-79]	100%	100%	90%	100%	100%	100%	90%	90%	100%	100%	very good herbicidal activity	100%	90%	90%	very good herbicidal activity	100%	100%	100%	100%	100%	Pre-emergence action against Poa annua (POAAN) (Poa annua (POAAN) [5]; dosage 320 g/ha): 90%; Pre-emergence action against Poa annua (POAAN) (Poa annua (POAAN) [5]; dosage 1280 g/ha): 100%; Post-emergence action against Bassia scoparia (KCHSC) (Bassia scoparia (KCHSC); dosage 320 g/ha): 90%; Pre-emergence action against Matricaria inodora (MATIN) ([13]; dosage 320 g/ha): 100%; Pre-emergence action against Matricaria inodora (MATIN) ([13]; dosage 1280 g/ha): 100%; Post-emergence action against Poa annua (POAAN) (Poa annua (POAAN) [17]; 320 g/ha): 100%; Post-emergence action against Poa annua (POAAN) (Poa annua (POAAN) [17]; 1280 g/ha): 100%; Pre-emergence action against Setaria viridis (SETVI) (Setaria viridis (SETVI); dosage 1280 g/ha): 100%; Pre-emergence action against Stellaria media (STEME) (Stellaria media (STEME) [18]; dosage 320 g/ha): 100%; Pre-emergence action against Stellaria media (STEME) (Stellaria media (STEME) [18]; dosage 1280 g/ha): 100%
CCc1cccc(Oc2ccc(Cl)cn2)c1-c1cc(C(F)F)no1 [Example 1-59]	100%	100%	100%	100%	100%	100%	90%	100%	100%	100%	very good herbicidal activity	100%	100%	90%	very good herbicidal activity	100%	100%	100%	90%	100%	Post-emergence action against Alopecurus myosuroides (ALOMY) ([2]; 320 g/ha): 100%; Pre-emergence action against Digitaria sanguinalis (DIGSA) ([3]; dosage 320 g/ha): 100%; Pre-emergence action against Echinochloa crus-galli (ECHCG) [19]: 90%; Post-emergence action against Digitaria sanguinalis (DIGSA) ([9]; dosage 320 g/ha): 100%; Pre-emergence action against Alopecurus myosuroides (ALOMY) ([10]; dosage 320 g/ha): 100%; Pre-emergence action against Lolium rigidum (LOLRI) (Lolium rigidum (LOLRI)): 100%; Pre-emergence action against Veronica persica (VERPE) (Veronica persica (VERPE) [14]; dosage 320 g/ha): 100%; Post-emergence action against Poa annua (POAAN) (Poa annua (POAAN) [17]; 320 g/ha): 100%; Post-emergence action against Poa annua (POAAN) (Poa annua (POAAN) [17]; 1280 g/ha): 100%; Pre-emergence action against Setaria viridis (SETVI) (Setaria viridis (SETVI); dosage 320 g/ha): 100%; Pre-emergence action against Setaria viridis (SETVI) (Setaria viridis (SETVI); dosage 1280 g/ha): 100%; Pre-emergence action against Stellaria media (STEME) (Stellaria media (STEME) [18]; dosage 320 g/ha): 100%; Pre-emergence action against Stellaria media (STEME) (Stellaria media (STEME) [18]; dosage 1280 g/ha): 100%
